Assay results: patent US11911387B2, “Vasoprotective and cardioprotective antidiabetic therapy” (Boehringer Ingelheim International GmbH, priority 2010, dated 2024)
“Also recorded” adds a separate entry of the source. Marks after values point to notes of the source that are not given here. Blank lines part the entries; values can stand above or below the compound they belong to.

How the values were obtained:
[1] = system: isolated aortic ring segments; assay: Direct vasodilatory effects, isometric tension recording in isolated aortic ring segments; set-up: species or system rats; conditions: cumulative concentrations 1 nM to 32 or 100 μM; versus DMSO
Description: FIGS. 9A and 9B show direct vasodilatory effects of gliptins. […] The data are mean±SEM of 12 (FIG. 9A) or 4 (FIG. 9B) aortic rings from 10 rats in total: p<0.05 vs. DMSO (solvent control); ^#p<0.05 vs. sita-/vildagliptin, and ^§, p<0.05 vs. saxa-/alogliptin.
Direct vasodilatory effects of gliptins are measured by the isometric tension technique in isolated aortic ring segments. […] In addition reactive oxygen and nitrogen species (RONS) formation is determined in isolated cardiac mitochondria and LPS or PDBu-triggered oxidative burst in whole blood.

[2] = system: T2DM patients on stable metformin; conditions: for adjusted mean HbA1c change from baseline: PP population, linagliptin 5 mg/day, glimepiride mean dose 3 mg/day, added to metformin
[3] = system: NOD mice; assay: Onset of diabetes and beta-cell mass in non-obese-diabetic (NOD) mice, 60 days; type: in vivo
Source text: Though reduced pancreatic T-cell migration and altered cytokine production is considered important players for the onset of insulinitis the exact mechanism and effects on the pancreatic cell pool is still incompletely understood.
Bi-weekly plasma samples are obtained to determine onset of diabetes (BG>11 mmol/l).

[4] = system: adhesion of human neutrophils to endothelial cells (EA.hy cells); assay: Adhesion of LPS-stimulated human neutrophils to cultured endothelial cells; type: cell-based; conditions: in the presence of LPS
[5] = system: ischemia/reperfusion (I/R) rats; assay: Myocardial ischemia/reperfusion in Wistar rats, linagliptin from 30 days before I/R; type: in vivo
[6] = system: septic rats (LPS); assay: LPS-induced septic shock in Wistar rats, linagliptin cotherapy; type: in vivo
Description: (§1) Direct vasodilatory effects of gliptins are measured by the isometric tension technique in isolated aortic ring segments. […]. In addition reactive oxygen and nitrogen species (RONS) formation is determined in isolated cardiac mitochondria and LPS or PDBu-triggered oxidative burst in whole blood. […].

[7] = system: nitrate tolerant rats; assay: Rat model of nitroglycerin-induced nitrate tolerance, oral linagliptin; type: in vivo
Description: as §1

[8] = system: hydrogen peroxide/peroxidase system; assay: Direct antioxidant effect: hydrogen peroxide/peroxidase mediated 1-electron-oxidation; type: biochemical
[9] = system: diabetic eNOS knockout C57BL/6J mice; assay: ARB-resistant diabetic nephropathy in diabetic eNOS knockout C57BL/6J mice, 12 weeks; type: in vivo
Source text: Fourteen mice are used as non-diabetic controls. After 12 weeks, urine and blood are obtained and blood pressure measured.

[10] = system: 5/6N rats; assay: Rat model of chronic renal insufficiency (5/6 nephrectomy), GLP-1 levels and cardiac mRNA; type: in vivo; conditions: for active GLP-1 AUC(0-72 h) / active GLP-1 maximum plasma concentration (Cmax): linagliptin 3.3 mg/kg oral for 4 days
Source text: At the end of the study, heart tissue is harvested for mRNA analyses.

[11] = system: patients with type 2 diabetes; assay: Postprandial glucose excursions, safety and tolerability in patients with type 2 diabetes, multiple oral doses of BI 1356
[12] = system: diabetic eNOS ko mice; assay: Diabetic nephropathy in STZ-diabetic eNOS ko mice, 4 weeks treatment; type: in vivo; conditions: STZ treated animals, linagliptin 3 mg/kg, telmisartan 1 mg/kg p.o.
Source text: Endothelial damage is characteristic for type 2 diabetes and contributes to the development of end stage kidney disease. Further, vascular endothelial NO synthase (eNOS) activity is altered in T2D and genetic abnormalities in the respected gene (NOS3) are associated with the development of advanced diabetic nephropathy (DN) in patients with type 1 and type 2 diabetes. The use of low dose STZ to induce T2D in this genetic phenotype (eNOS−/−) has been recently reported (Brosius et al, JASN 2009) to be a valid experimental model for DN. Eight week old eNOS −/− mice are rendered diabetic with intraperitoneal injections of streptozotocin (100 mg/kg per day for two consecutive days). Development of diabetes (defined by blood glucose>250 mg/dl) is verified one week after streptozotocin injection. No insulin is given because that could prevent the development of diabetic nephropathy. Mice are treated for 4 weeks with:
1) Non-diabetic eNOS ko control mice, placebo (natrosol) (n=14)
2) sham treated diabetic eNOS ko mice, placebo (natrosol) (n=17)
3) Telmisartan (p.o. 1 mg/kg) treated diabetic eNOS ko mice (n=17)
Renal function (s-creatinine, albuminuria) and blood glucose level are detected.

[13] = system: peroxynitrite (authentic and Sin-1 derived); assay: Direct antioxidant effect: peroxynitrite formation/-mediated nitration; type: biochemical
[14] = system: rats fed a high-fat diet (diet induced obesity); assay: Diet induced obesity rats, body weight and MRS fat analysis; conditions: rat, in vivo
[15] = system: isolated human leukocytes (PMN); assay: Oxidative burst (NADPH oxidase activation) in isolated human leukocytes (PMN); type: cell-based
Description: In FIG. 4, within each setting of inhibition of oxidative burst, the first bar from left refers to activation by LPS and the second bar refers to activation by Zymosan A.
In FIG. 6, within each setting of LPS stimulation, the first bar from left refers to w/o gliptin, the second bar refers to 1 μM Bl 1356, the third bar refers to 10 μM Bl 1356 and the fourth bar refers to 100 μM Bl 1356.

[16] = system: patients with type 2 diabetes
[17] = Pharmacokinetics of BI 1356, multiple oral doses once daily for 12 days in patients with type 2 diabetes; conditions: for feT, SS: steady state (Day 12); for feT, SS / fe0-24: gMean

SMILES: Cn1c(=O)cc(N2CCC[C@@H](N)C2)n(Cc2ccccc2C#N)c1=O [alogliptin]
direct vasodilatory effect (induction of vasodilation), ranking [1]: directly followed by alogliptin and vildagliptin

patients with investigator-defined, drug-related hypoglycemia ([2]; human, in vivo, 2 years): 36.1%
SMILES: CCC1=C(C)CN(C(=O)NCCc2ccc(S(=O)(=O)NC(=O)N[C@H]3CC[C@H](C)CC3)cc2)C1=O [glimepiride, reference compound]
adjusted mean HbA1c change from baseline ([2]; 2 years): −0.5%
body weight change ([2]; in vivo): +1.3 kg

SMILES: CC#CCn1c(N2CCC[C@@H](N)C2)nc2c1c(=O)n(Cc1nc(C)c3ccccc3n1)c(=O)n2C [linagliptin]
incidence of diabetes at the end of the study period ([3]; diet corresponding to 3-10 mg/kg p.o., 60 days, p=0.021): 9 out of 30
active plasma GLP-1 at termination ([3]; mouse, in vivo): higher
beta cell mass ([3]; p<0.01): 0.48 ± 0.09 mg
leukocyte adhesion to endothelial cells [4]: suppresses leukocyte adhesion
direct vasodilatory effect (induction of vasodilation), ranking [1]: most potent compound
proportion of infarcted tissue relative to the total area at risk ([5]; 3 mg/kg once daily from 30 days before I/R, p<0.001): −21%
absolute infarction size ([5]; 3 mg/kg once daily, p<0.05): −18%
isovolumetric contractility index dP/dTmin ([5]; after 60 days): −4957±73 mmHg/s
glucagon-like peptide-1 (GLP-1) levels increased ([5]; p<0.0001): 18 fold
endothelial dysfunction (endothelium-dependent relaxation) ([6]; LPS treated rats): significantly improved
vascular function (Ach-, GTN-, and diethylamine NONOate-dependent relaxation) ([6]; impaired by LPS): almost normalized
mitochondrial and whole blood (LPS, PDBu-stimulated) RONS production ([6]; increased by LPS): improved
vascular oxidative stress (DHE) and markers of vascular inflammation (VCAM-1, Cox-2, NOS-2) ([6]; increased by LPS): significantly improved
increase of plasma GLP-1 levels ([6]; rat, in vivo): ~10 fold
cardiac mitochondrial ROS formation and whole blood LPS/zymosan A-triggered oxidative burst ([7]; nitrate-tolerant rats): improved; also recorded: minor improvement
nitrate tolerance ([7]; nitroglycerin treated rats): not altered
endothelial dysfunction (endothelium dependent relaxation) ([7]; nitroglycerin treated rats, linagliptin 3-10 mg/kg/d by diet 7 d): significantly improved
body weight of the animals ([7]; rat, in vivo): Neither nitroglycerin nor linagliptin treatment has effects
blood glucose levels ([7]; slightly increased in the nitroglycerin group): normalized
interference with 1-electron-oxidations by the hydrogen peroxide/peroxidase system [8]: most potent compound
plasma osteopontin levels ([9]; 12 weeks): significantly lower
albuminuria (urinary albumin excretion per 24 h) ([9]; 12 weeks, telmisartan 1 mg/kg, linagliptin 3 mg/kg): 120.8±37.7 μg/24 h
glomerulosclerosis in the kidney, histological score ([9]; compared with diabetic controls, p<0.05): 2.1+/−0.0
active GLP-1 AUC(0-72 h) ([10]; 5/6N animals): 201 pg·h/mL
active GLP-1 maximum plasma concentration (Cmax) ([10]; 5/6N animals): 6.36 ± 2.58 pg/mL
cardiac mRNA levels of TGF-β, TIMP-1, collagens 1α1 and 3α1 and BNP ([10]; increased in 5/6N versus sham, all p<0.05): reduced or even normalized
increase of the AUC of GLP-1 ([10]; rat model of renal failure): approximately twofold
active GLP-1 AUC(0-72 h) ([10]; sham animals): 114 pg·h/mL
active GLP-1 maximum plasma concentration (Cmax) ([10]; sham animals): 3.91 ± 1.86 pg/mL
adjusted mean HbA1c change from baseline ([2]; 2 years): −0.4%
patients with investigator-defined, drug-related hypoglycemia ([2]; human, in vivo, 2 years): 7.5%
relative risk for the combined CV endpoint (RR) ([2]; human, in vivo, 2 years): 0.50
body weight change ([2]; in vivo): -1.4 kg
body weight, adjusted mean difference ([2]; in vivo): -2.7 kg
mean between-group difference in HbA1c change ([2]; linagliptin vs glimepiride, p=0.0001 for noninferiority): 0.17%
decrease in 2 h postprandial blood glucose excursions ([11]; already on Day 1, doses ≥2.5 mg): 80%
safety and tolerability ([11]; people with type 2 diabetes): placebo-like safety and tolerability
blood sugar versus placebo [12]: No significant differences
suppression in response to peroxynitrite formation/-mediated nitration [13]: Minor (but significant) suppression
steatosis, inflammation and fibrosis in the liver, histological scoring [14]: reduction
PMN derived RONS signal, L-012 enhanced chemiluminescence ([15]; LPS 0.5, 5 and 50 μg/ml): suppresses the signal concentration-dependently
inhibition of oxidative burst ([15]; NADPH oxidase activation by LPS and zymosan A, compared with other gliptins): best inhibition
suppression of LPS or zymosan A-triggered oxidative burst, luminol/peroxidase enhanced chemiluminescence ([15]; versus nebivolol): as efficient as nebivolol
suppression of LPS or zymosan A-triggered oxidative burst, luminol/peroxidase enhanced chemiluminescence ([15]; versus other gliptins): much more efficient
Primary CV endpoint, incidence rate/1000 pt-yr ([16]; in vivo): 5.3 /1000 pt-yr
All adjudicated CV events, Hazard ratio (95% CI) ([16]; linagliptin vs comparator): 0.55 (0.33, 0.94)*
FDA-custom MACE, Hazard ratio (95% CI) ([16]; linagliptin vs comparator): 0.34 (0.15, 0.75)*
Hospitalization for UAP, Hazard ratio (95% CI) ([16]; linagliptin vs comparator): 0.24 (0.02, 2.34)
Primary CV endpoint, Hazard ratio (Cox proportional model) (95% CI) ([16]; linagliptin vs comparator): 0.34 (0.16, 0.70)*
Transient ischemic attack, Hazard ratio (95% CI) ([16]; linagliptin vs comparator): 0.17 (0.02, 1.53)
Primary CV endpoint, % ([16]; n = 3319): 0.3%
All adjudicated CV events, incidence rate/1000 pt-yr ([16]; secondary endpoint): 12.6 /1000 pt-yr
FDA-custom MACE, incidence rate/1000 pt-yr ([16]; secondary endpoint): 4.3 /1000 pt-yr
Hospitalization for UAP, incidence rate/1000 pt-yr ([16]; tertiary endpoint): 0.5 /1000 pt-yr
Non-fatal MI, incidence rate/1000 pt-yr ([16]; tertiary endpoint): 2.9 /1000 pt-yr
Non-fatal stroke, incidence rate/1000 pt-yr ([16]; tertiary endpoint): 1.0 /1000 pt-yr
Transient ischemic attack, incidence rate/1000 pt-yr ([16]; tertiary endpoint): 0.5 /1000 pt-yr
feT, SS ([17]; 1 mg once daily oral): 3.34%
fe0-24 ([17]; 2.5 mg once daily oral): 0.139%
feT, SS ([17]; 2.5 mg once daily oral): 3.06%
fe0-24 ([17]; 5 mg once daily oral): 0.453%
feT, SS ([17]; 5 mg once daily oral): 6.27%
fe0-24 ([17]; 10 mg once daily oral): 0.919%
feT, SS ([17]; 10 mg once daily oral): 3.22%
mean accumulation ratio RA,AUC ([17]; doses above 1 mg once daily): ≤ 1.4
route of excretion ([17]; human, in vivo): primarily excreted unchanged via the bile
excreted via the kidney ([17]; therapeutic oral dose levels): < 7 % of the administered oral dose
